Reference: US11207312B2, “Metallo-beta-lactamase inhibitors and methods of use thereof” (priority 2017, dated 2021)

How the values were obtained:
[1] = tested on: P. aeruginosa MB9799 (efflux-, IMP-1 plasmid); type: cell-based, Pseudomonas aeruginosa; details: efflux − (MB9799) strain; imipenem at 2 μg/mL; in the presence of a class A, C, D serine β-lactamase inhibitor closely related to relebactam
How it was run: (§1)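 Isogenic P. aeruginosa PAO1 strains (efflux+ and multiple-efflux-pump-disrupted) carrying plasmid IMP-1, with inducible AmpC, tested by broth microdilution. Imipenem and/or ceftazidime fixed, usually at CLSI breakpoint, plus fixed class A/C β-lactamase inhibitor; titrated MBL inhibitor concentration restoring susceptibility recorded and compared between strains as efflux fold difference.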

VIM-2 = VIM-2 (Escherichia coli, UniProt Q5U7L7); assay: biochemical; details: CCF2-FA fluorescence assay; read-out: VIM2 IC50
IMP-1 = IMP-1 (Serratia marcescens, UniProt P52699); assay: biochemical; details: CCF2-FA fluorescence assay, 2 hours at 25° C.; read-out: IMP1 IC50
How it was run: (§2)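 Metallo-β-lactamase activity read by fluorescence against CCF2-FA (1.25 μM final) in 100 mM KH2PO4 pH 7 with 0.005% Tween-20 and 10 μM ZnSO4; enzyme final at 1 pM NDM-1, 2 pM IMP-1 or 30 pM VIM-1. Inhibitor at 20 to 0.00063 μM, 2 h at 25° C; IC50 by 4-parameter fit.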

VIM-1 = VIM-1 (Pseudomonas aeruginosa (strain ATCC 15692 / DSM 22644 / CIP 104116 / JCM 14847 / LMG 12228 / 1C / PRS 101 / PAO1), UniProt A0A0F7KYQ8); assay: biochemical; details: CCF2-FA fluorescence assay, 2 hours at 25° C.; read-out: VIM1 IC50
How it was run: as §2

[2] = tested on: P. aeruginosa MB9798 (efflux+, IMP-1 plasmid); details: for MB9798 MITC95 P. aeruginosa uM Efflux WT: efflux + (MB9798) strain, imipenem at 2 μg/mL, in the presence of a class A, C, D serine β-lactamase inhibitor closely related to relebactam; for Efflux ratio: fold difference between efflux+ (MB9798) and efflux− (MB9799) strains
How it was run: as §1

NDM-1 = NDM-1 (Klebsiella pneumoniae, UniProt C7C422); assay: biochemical; type: biochemical; details: CCF2-FA fluorescence assay, 2 hours at 25° C.
How it was run: as §2

[3] = tested on: Serratia marcescens expressing IMP-1 (CL5741); type: cell-based; details: with imipenem 1 μg/ml; 95% inhibition of bacterial growth
How it was run: (§3)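 Clinical MBL-producing strains grown overnight at 35° C, diluted 1:100 into CAMHB, then exposed to test compound with imipenem at 1 μg/ml for 22–24 h at 35° C. Absorbance read-out; MITC95 is the lowest compound concentration giving 95% growth inhibition with imipenem.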

[4] = tested on: Klebsiella pneumoniae expressing VIM-1 (IHMA599644); type: cell-based; details: with imipenem 1 μg/ml; 95% inhibition of bacterial growth
How it was run: as §3

[5] = tested on: Escherichia coli expressing NDM-1 (CLB30016); type: cell-based; details: with imipenem 1 μg/ml; 95% inhibition of bacterial growth
How it was run: as §3

IMP-1, sequence (P52699 whole entry, looked up, species assumed): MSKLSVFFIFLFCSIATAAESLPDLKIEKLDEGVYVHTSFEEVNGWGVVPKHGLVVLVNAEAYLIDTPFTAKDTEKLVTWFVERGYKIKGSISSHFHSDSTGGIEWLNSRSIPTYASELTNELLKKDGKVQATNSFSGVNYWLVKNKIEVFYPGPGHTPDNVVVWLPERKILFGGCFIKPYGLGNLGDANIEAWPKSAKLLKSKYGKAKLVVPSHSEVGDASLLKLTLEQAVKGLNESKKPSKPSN
NDM-1, sequence (C7C422 whole entry, looked up, species assumed): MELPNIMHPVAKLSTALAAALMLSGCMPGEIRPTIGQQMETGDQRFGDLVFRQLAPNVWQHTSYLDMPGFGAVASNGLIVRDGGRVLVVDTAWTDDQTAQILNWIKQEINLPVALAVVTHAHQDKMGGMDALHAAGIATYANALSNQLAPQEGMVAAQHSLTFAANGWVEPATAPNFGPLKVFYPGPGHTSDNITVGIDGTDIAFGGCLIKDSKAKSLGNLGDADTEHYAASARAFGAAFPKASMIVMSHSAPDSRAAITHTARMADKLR

Structure (SMILES)	MB9799 MITC95 P. aeruginosa uM Efflux Mutant [1]	IC50 (VIM-2)	IC50 (IMP-1)	IC50 (VIM-1)	MB9798 MITC95 P. aeruginosa uM Efflux WT [2]	Efflux ratio [2]	IC50 (NDM-1)	CL5741 S. marcescens MITC95 IMP [3]	IHMA599644 K. pneumoniae MITC95 VIM [4]	CLB30016 E. coli MITC95 NDM [5]
NCCN1CCN(c2ccc(S(=O)(=O)N[C@@H]3CCNC3)c(S(N)(=O)=O)c2-c2nnn[nH]2)CC1 [Example 76, 4-[4-(2-aminoethyl)piperazin-1-yl]-N1-[(3R)-pyrrolidin-3-yl]-3-(1H-tetrazol-5-yl)benzene-1,2-disulfonamide]	1.56 µM	18.1 nM	10.7 nM	1.6 nM	1.56 µM	1.00	4.35 nM	3.13 µM	3.13 µM	1.56 µM
NCCNS(=O)(=O)c1ccc(N2CCC(CN)CC2)c(-c2nnn[nH]2)c1S(N)(=O)=O [Example 35, N1-(2-aminoethyl)-4-(4-(aminomethyl)piperidin-1-yl)-3-(1H-tetrazol-5-yl)benzene-1,2-disulfonamide]	0.78 µM	6.69 nM	5.1 nM	0.32 nM	0.78 µM	1.00	3.6 nM	0.78 µM	3.13 µM	0.39 µM
NS(=O)(=O)c1c(S(=O)(=O)C2CNC2)ccc(N2CCC(CCO)CC2)c1-c1nnn[nH]1 [Example 56, 6-(azetidin-3-ylsulfonyl)-3-[4-(2-hydroxyethyl)piperidin-1-yl]-2-(1H-tetrazol-5-yl)benzenesulfonamide]	1.56 µM	0.82 nM	0.45 nM	0.25 nM	6.25 µM	4.00	0.76 nM	3.13 µM	6.25 µM	6.25 µM
NC[C@@H](O)CNS(=O)(=O)c1ccc(N2CC[C@@H](CN)[C@@H](F)C2)c(-c2nn[nH]n2)c1S(N)(=O)=O (racemic) [Example 6]	0.39 µM	4.19 nM	3.38 nM	0.17 nM	0.78 µM	2.00	1.12 nM	0.20 µM	0.78 µM	0.20 µM
NC[C@@H](O)CNS(=O)(=O)c1ccc(N2CCCN(CCO)CC2)c(-c2nn[nH]n2)c1S(N)(=O)=O [Example 23, (R)-N^1-(3-amino-2-hydroxypropyl)-4-(4-(2-hydroxyethyl)-1,4-diazepan-1-yl)-3-(2H-tetrazol-5-yl)benzene-1,2-disulfonamide]	1.56 µM	10 nM	40.5 nM	1.48 nM	3.13 µM	2.00	19.7 nM	1.56 µM	0.78 µM	0.39 µM
NS(=O)(=O)c1c(S(=O)(=O)N[C@@H]2CCNC2)ccc(N2CCN(CCO)CC2)c1-c1nnn[nH]1 [Example 102, 4-[4-(2-hydroxyethyl)piperazin-1-yl]-N1-[(3R)-pyrrolidin-3-yl]-3-(1H-tetrazol-5-yl)benzene-1,2-disulfonamide]	1.56 µM	7.94 nM	2.07 nM	3.06 nM	3.13 µM	2.00	1.35 nM	0.20 µM	3.13 µM	0.20 µM
NC1CCN(c2ccc(S(=O)(=O)N[C@@H]3CCNC3)c(S(N)(=O)=O)c2-c2nn[nH]n2)C(=O)C1 (stereo partly drawn) [Example 158, 4-(4-amino-2-oxopiperidin-1-yl)-N1-((R)-pyrrolidin-3-yl)-3-(2H-tetrazol-5-yl)benzene-1,2-disulfonamide]	3.13 µM	22.8 nM	88.4 nM	1.22 nM	6.25 µM	2.00	7.19 nM	1.56 µM	0.78 µM	0.10 µM
